Assay results: patent publication US20040242487A1, “Regulation of eating behavior” (Joslin Diabetes Center, Inc., a Massachusetts corporation, priority 1995, published 2004)
Entries after “also recorded” stand apart in the source; their conditions may differ.

Experiments:
[1] = target: T1, MC3-R (Mus musculus, UniProt P33033); experiment: HEK-293 assay: ACTH binding to MC3-R after exposure to MCH; type: cell-based; details: HEK-293 cells stably transfected with MC3-R; exposure to 10^-7 M MCH for 20 minutes or overnight
T1 construct: expressed in transfected cells; host or cells: HEK-293 (human kidney), stably transfected
Description: As discussed herein, heterologous human kidney, HEK-293 cells stably transfected with a plasmid carrying MC3-R can be used to assay MCH activity. It is not clear whether the MCH interaction with the MC3-R receptor is direct or indirect, but application of MCH results in an increase in binding of ACTH to the MC3-R receptor. […] Exposure of cells to 10^-7 M MCH for 20 minutes or overnight results in a 15-100% increase in ACTH binding.

[2] = tested on: rat; experiment: In vivo rodent brain assay: intraventricular injection, eating behavior; details: intraventricular (third ventricle) injection of 5 μg MCH in 5 μl phosphate buffered saline, versus saline controls
Excerpt: As discussed herein, rodents, e.g., rats, can be used to assay MCH activity in vivo. A Teflon catheter can be inserted into the third ventricle of a rat and cemented into place. MCH or its analogs, e.g., agonists or antagonists, can be introduced by way of the catheter at various concentrations, and their effect on eating behavior determined.
To further evaluate the importance of MCH as an appetite regulator, a Teflon catheter was inserted into the third ventricle of a rat and cemented into place, followed by intraventricular injection of 5 μg of MCH in 5 μl of phosphate buffered saline. Control animals received only phosphate buffered saline.

T1 sequence (P33033 whole entry): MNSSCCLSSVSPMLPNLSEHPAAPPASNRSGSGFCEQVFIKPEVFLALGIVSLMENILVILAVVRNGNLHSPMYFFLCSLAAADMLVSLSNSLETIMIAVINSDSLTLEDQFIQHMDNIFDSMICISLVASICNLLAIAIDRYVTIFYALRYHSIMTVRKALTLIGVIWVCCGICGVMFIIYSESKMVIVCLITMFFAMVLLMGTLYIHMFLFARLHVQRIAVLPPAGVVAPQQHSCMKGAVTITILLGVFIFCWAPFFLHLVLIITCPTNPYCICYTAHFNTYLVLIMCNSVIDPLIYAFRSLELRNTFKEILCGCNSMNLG

melanocyte concentrating hormone [MCH]
increase in ACTH binding [1]: 15-100% | Kcal consumed within one hour [2]: more than doubling; also recorded: doubling
